Experimental data from ChEMBL document CHEMBL5465560, “Selectivity Literature for EUbOPEN Chemogenomic Library” (2024).
Values belong to the compound of their own block, whether it stands above or below them.

Columns and labels:
[1] = molecular target: T1, Serine/threonine-protein kinase TNNI3K (Homo sapiens) (UniProt Q59H18); assay: Selectivity interaction (Ambit KINOMEscan and KiNATiv profiling in Jurkat cells) EUB0000090b TNNI3K; type: cell-based; conditions: at 1 µM
T1 sequence (whole entry): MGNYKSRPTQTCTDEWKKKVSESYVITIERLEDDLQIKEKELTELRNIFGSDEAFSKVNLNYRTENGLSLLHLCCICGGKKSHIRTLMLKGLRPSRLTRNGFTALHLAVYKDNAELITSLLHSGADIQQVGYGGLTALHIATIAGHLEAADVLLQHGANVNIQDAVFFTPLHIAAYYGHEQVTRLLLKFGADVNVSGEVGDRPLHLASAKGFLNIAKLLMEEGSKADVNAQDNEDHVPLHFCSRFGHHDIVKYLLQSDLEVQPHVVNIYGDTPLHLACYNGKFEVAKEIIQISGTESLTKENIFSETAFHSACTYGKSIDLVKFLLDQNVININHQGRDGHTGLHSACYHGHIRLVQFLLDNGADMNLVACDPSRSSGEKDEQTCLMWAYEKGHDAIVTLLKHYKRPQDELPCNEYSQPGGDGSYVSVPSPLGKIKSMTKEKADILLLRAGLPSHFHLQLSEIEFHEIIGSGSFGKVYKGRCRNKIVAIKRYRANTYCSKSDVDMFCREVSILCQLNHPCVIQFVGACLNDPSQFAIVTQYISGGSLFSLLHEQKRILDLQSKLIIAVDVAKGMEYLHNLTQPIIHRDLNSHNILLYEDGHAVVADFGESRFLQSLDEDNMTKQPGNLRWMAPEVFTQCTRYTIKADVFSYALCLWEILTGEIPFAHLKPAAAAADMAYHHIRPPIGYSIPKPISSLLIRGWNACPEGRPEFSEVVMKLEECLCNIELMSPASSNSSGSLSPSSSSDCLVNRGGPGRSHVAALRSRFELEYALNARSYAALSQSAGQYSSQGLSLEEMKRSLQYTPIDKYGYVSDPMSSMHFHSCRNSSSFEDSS

[2] = molecular target: Receptor tyrosine-protein kinase erbB-4 (Homo sapiens, UniProt Q15303); assay: Selectivity interaction (Kinase panel (literature)) EUB0001199aCl ERBB4; conditions: at 1 µM
Receptor tyrosine-protein kinase erbB-4, sequence (Q15303 whole entry): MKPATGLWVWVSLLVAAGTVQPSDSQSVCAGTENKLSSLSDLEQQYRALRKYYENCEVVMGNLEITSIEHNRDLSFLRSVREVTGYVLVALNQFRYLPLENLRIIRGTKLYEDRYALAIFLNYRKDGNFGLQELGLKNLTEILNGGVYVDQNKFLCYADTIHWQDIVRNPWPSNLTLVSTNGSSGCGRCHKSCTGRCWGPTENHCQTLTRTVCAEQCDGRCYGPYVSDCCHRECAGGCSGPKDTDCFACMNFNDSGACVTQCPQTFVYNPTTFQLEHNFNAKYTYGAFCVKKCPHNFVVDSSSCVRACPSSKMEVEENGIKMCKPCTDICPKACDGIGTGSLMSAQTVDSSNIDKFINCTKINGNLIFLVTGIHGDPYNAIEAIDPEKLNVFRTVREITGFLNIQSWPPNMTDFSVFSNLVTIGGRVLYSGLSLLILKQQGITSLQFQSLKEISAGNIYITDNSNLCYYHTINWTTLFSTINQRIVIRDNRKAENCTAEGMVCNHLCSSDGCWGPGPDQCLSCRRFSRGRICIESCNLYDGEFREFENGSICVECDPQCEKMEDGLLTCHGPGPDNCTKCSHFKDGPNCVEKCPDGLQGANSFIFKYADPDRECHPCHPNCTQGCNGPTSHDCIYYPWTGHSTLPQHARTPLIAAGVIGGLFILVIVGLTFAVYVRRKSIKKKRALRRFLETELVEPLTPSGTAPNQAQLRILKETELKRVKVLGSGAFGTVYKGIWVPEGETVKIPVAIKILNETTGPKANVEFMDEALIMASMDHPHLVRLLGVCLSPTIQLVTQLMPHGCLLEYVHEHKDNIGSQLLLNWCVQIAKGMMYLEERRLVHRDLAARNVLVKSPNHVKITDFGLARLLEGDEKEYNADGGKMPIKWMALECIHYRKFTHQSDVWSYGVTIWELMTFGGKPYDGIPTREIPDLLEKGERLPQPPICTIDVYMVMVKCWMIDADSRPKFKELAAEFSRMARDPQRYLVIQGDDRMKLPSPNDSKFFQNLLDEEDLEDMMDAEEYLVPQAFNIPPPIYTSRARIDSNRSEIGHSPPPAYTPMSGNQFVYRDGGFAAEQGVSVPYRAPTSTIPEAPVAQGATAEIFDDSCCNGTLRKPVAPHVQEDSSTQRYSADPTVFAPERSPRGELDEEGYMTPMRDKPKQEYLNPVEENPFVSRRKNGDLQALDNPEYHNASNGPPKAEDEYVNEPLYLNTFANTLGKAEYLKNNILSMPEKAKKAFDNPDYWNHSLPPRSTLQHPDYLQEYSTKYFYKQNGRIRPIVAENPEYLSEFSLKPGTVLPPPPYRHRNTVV

[3] = molecular target: T2, MAP/microtubule affinity-regulating kinase 4 (Homo sapiens) (UniProt Q96L34); assay: Selectivity interaction (ProQinase) EUB0000171b MARK4
T2 sequence (whole entry): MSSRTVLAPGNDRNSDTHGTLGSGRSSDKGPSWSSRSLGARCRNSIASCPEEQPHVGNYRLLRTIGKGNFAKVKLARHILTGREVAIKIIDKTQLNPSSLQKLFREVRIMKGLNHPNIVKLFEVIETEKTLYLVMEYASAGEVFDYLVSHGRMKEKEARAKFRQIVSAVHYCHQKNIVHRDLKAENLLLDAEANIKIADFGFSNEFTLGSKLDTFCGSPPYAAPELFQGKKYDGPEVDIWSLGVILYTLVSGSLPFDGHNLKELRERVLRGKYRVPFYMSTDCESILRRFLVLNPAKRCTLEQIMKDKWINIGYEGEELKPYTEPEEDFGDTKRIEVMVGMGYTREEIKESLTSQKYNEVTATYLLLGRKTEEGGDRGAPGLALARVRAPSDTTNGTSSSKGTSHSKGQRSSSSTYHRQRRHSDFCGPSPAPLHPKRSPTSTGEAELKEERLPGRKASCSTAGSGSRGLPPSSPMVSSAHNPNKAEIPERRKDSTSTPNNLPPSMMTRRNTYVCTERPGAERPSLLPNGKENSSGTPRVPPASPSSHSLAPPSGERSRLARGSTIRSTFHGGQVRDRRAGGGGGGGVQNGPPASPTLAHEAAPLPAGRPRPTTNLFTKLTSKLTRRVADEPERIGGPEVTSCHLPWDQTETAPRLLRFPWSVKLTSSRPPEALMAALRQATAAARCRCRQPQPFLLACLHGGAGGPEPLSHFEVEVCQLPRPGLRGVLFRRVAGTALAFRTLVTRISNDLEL

[4] = molecular target: T3, Testis-specific serine/threonine-protein kinase 2 (Homo sapiens) (UniProt Q96PF2); assay: Selectivity interaction (Upstate Kinase Profiler service (Millipore)) EUB0000056c TSSK2; conditions: at 1 µM
T3 sequence (whole entry): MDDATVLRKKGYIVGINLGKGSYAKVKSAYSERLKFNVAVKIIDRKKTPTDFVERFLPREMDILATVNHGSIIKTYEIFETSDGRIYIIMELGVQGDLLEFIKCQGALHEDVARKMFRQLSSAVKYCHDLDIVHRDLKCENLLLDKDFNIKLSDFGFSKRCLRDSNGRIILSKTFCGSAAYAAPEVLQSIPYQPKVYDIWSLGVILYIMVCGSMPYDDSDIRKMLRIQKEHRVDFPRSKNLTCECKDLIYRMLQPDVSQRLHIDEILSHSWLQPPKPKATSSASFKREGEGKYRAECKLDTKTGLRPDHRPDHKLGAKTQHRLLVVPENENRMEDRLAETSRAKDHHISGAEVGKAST

[5] = molecular target: T4, Protein kinase C epsilon type (Homo sapiens) (UniProt Q02156); assay: Selectivity interaction (KinomeScan (DiscoverX)) EUB0000655a PRKCE; conditions: at 10 µM
T4 sequence (whole entry): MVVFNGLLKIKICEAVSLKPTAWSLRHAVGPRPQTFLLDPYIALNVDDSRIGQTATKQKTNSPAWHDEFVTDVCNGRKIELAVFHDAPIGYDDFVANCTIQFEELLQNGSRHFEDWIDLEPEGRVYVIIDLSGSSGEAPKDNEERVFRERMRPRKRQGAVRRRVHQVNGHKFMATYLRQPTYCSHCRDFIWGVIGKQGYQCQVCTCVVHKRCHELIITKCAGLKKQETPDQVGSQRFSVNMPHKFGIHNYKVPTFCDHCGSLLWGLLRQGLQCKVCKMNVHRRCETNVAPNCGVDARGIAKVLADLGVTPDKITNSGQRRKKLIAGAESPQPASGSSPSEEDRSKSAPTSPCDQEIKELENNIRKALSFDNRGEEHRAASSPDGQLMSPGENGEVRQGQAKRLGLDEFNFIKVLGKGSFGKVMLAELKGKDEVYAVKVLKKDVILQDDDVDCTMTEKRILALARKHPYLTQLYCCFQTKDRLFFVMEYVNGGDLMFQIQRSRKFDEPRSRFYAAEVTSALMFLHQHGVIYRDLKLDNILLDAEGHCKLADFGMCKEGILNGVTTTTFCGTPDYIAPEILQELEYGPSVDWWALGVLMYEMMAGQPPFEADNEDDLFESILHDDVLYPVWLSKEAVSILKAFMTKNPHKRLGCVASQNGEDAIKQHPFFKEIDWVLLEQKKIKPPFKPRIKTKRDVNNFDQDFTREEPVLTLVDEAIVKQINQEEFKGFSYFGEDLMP

Compound: CN(C)C/C=C/C(=O)Nc1ccc(C(=O)N2CCCC(Nc3ncc(Cl)c(-c4c[nH]c5ccccc45)n3)C2)cc1 (stereo unspecified)
- % of control [1]: 86%

Compound: CN(C)CCOc1ccc(-c2nc(-c3ccncc3)c(-c3ccc4c(c3)CC/C4=N\O)[nH]2)cc1
- % of control [5]: 100%

More lines, now with the values ahead:

- % of inhibition [2]: 15%
Compound: CN1Cc2nccc(-c3cn(C)nc3-c3ccc(F)cc3)c2C1=O

- % of control ([3]; at 1 µM): 92%
- % of control ([3]; at 5 µM): 99%
Compound: C=CC(=O)Nc1cccc(C(=O)Nc2ccc(Nc3cc(-c4[nH]c(SC)nc4C)ccn3)cc2)c1

- % of inhibition [4]: 4%
Compound: Cc1ccc(-c2ccc3c(ccc4sc5c(c43)NC[C@@H](C)NC5=O)n2)cn1
